According to patent US20260092071A1, “COMPOUNDS AND COMPOSITIONS AS SMARCA2/4 DEGRADERS AND USES THEREOF” (REGENTS OF THE UNIVERSITY OF MICHIGAN, priority 2022, published 2026):

How the values were obtained:
SMARCA4 = SMARCA4 (Homo sapiens, UniProt P51532); test: HiBiT assay for protein degradation, Hela SMARCA4-HiBiT cells (A series); assay type: cell-based; design: fuse HiBiT to the carboxy terminus of SMARCA2 (Promega CS302365) or SMARCA4 (Promega CS3023225); host or cells: HeLa (CRISPR/Cas9 HiBiT knock-in); details: Hela SMARCA4-HiBiT cells, 24 hours treatment; for DC50: read-out: SMARC A4 Hela HiBit DC50; for Dmax: read-out: SMARC A4 Hela HiBit Dmax
Chain of SMARCA4 (P51532 whole entry, the tested form may be a part): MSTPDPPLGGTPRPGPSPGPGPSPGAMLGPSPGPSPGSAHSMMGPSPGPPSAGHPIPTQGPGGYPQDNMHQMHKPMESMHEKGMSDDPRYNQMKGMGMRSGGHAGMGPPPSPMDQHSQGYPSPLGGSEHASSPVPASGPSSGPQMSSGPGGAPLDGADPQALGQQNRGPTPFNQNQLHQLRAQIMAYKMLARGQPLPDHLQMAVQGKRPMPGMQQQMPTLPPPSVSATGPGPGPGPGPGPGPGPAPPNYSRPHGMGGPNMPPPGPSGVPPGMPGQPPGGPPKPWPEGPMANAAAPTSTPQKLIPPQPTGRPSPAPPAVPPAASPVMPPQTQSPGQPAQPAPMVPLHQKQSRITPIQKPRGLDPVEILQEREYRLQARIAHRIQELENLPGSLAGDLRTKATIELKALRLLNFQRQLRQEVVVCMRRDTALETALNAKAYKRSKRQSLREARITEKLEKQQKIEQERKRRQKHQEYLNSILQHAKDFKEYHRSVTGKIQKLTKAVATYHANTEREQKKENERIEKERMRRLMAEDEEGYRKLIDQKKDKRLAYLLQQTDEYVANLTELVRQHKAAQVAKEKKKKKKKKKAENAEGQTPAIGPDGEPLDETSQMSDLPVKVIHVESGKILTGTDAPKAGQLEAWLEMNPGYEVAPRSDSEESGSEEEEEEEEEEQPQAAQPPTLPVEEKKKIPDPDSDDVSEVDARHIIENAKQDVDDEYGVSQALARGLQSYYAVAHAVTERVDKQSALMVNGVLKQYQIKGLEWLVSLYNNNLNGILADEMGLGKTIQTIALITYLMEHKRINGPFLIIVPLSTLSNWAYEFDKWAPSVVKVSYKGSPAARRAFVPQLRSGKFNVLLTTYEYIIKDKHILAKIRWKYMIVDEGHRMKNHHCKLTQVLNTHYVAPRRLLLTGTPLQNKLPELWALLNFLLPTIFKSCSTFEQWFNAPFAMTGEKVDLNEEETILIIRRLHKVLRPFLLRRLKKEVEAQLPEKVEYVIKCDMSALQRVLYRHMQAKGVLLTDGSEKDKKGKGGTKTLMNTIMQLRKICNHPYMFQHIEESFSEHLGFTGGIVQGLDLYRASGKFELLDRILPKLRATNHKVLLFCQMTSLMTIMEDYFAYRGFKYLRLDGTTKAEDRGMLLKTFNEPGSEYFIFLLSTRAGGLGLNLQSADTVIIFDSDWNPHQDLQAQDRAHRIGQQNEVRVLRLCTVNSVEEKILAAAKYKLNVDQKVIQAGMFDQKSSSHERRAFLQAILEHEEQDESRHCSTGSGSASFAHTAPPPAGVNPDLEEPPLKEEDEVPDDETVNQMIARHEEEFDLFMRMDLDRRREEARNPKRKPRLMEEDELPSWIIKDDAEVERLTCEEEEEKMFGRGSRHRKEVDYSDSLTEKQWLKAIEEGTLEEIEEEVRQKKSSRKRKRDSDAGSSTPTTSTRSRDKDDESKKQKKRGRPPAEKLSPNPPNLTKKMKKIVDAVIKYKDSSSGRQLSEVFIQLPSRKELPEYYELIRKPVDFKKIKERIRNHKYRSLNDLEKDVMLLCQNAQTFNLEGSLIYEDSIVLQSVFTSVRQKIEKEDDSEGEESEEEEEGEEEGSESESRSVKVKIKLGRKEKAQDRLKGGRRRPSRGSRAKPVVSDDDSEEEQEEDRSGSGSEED
Method in brief: (§1)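 HeLa cells engineered by CRISPR/Cas9 to carry a HiBiT tag fused to the C-terminus of SMARCA4 (Promega CS3023225) were grown in DMEM supplemented with FBS and penicillin-streptomycin. After compound exposure, remaining SMARCA4 protein was quantified using the Nano-Glo® HiBiT Lytic Detection Assay (Promega N3050), and curves were fitted in GraphPad Prism.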

SMARCA2 = SMARCA2 (Homo sapiens, UniProt P51531); test: HiBiT assay for protein degradation, Hela SMARCA2-HiBiT cells (A series); assay type: cell-based; design: Hela cells were genetically modified via CRISPR/Cas9 to fuse HiBiT to the carboxy terminus of SMARCA2; host or cells: HeLa (CRISPR/Cas9 HiBiT knock-in); details: Hela SMARCA2-HiBiT cells, 24 hours treatment; for DC50: read-out: SMARC A2 Hela HiBit DC50; for Dmax: read-out: SMARC A2 Hela HiBit Dmax (%);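 as to SMARC A2 Hela HiBit Dmax (%): 24 h compound treatment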
Chain of SMARCA2 (P51531 whole entry): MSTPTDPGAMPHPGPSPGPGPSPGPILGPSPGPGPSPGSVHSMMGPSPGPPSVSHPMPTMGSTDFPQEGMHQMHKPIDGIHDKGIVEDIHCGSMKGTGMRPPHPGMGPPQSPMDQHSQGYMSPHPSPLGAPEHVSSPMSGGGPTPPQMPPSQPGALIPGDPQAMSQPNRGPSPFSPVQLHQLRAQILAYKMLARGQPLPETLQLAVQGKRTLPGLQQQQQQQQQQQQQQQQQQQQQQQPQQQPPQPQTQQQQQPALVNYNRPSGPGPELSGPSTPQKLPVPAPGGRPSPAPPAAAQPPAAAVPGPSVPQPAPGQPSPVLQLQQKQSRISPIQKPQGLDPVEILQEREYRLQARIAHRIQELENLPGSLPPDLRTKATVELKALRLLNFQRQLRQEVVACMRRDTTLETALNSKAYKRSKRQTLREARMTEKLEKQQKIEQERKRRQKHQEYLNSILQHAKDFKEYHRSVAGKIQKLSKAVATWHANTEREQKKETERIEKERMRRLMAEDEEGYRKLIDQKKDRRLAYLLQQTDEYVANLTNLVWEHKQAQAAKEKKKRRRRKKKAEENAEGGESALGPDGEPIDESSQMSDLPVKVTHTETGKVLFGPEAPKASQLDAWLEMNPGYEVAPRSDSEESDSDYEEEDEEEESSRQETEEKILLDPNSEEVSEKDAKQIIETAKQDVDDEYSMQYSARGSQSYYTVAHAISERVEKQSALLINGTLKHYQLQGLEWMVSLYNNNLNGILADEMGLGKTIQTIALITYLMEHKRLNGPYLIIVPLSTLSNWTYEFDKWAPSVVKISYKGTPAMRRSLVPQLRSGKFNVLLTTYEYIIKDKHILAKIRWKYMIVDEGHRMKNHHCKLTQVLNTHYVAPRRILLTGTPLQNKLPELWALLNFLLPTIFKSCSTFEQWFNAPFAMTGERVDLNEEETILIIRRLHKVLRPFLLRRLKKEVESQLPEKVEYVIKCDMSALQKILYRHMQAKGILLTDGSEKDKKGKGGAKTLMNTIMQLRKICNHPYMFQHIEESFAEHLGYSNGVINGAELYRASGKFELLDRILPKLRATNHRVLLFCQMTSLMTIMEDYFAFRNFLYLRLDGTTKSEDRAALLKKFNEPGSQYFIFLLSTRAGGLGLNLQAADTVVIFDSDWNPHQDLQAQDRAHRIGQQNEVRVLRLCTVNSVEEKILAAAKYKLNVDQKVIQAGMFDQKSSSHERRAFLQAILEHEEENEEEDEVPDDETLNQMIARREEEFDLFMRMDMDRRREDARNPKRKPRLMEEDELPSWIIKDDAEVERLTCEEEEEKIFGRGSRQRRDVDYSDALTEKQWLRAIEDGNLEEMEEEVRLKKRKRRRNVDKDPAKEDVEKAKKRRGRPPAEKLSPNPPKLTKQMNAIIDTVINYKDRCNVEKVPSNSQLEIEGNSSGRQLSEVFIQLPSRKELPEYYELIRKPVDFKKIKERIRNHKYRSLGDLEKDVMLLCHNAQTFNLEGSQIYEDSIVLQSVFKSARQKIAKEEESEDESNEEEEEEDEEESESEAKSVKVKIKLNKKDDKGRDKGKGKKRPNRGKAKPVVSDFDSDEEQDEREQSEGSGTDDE
Method in brief: as §1, with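 “SMARCA2” for “SMARCA4”, “CS302365)” for “CS3023225)”, “treatment,” for “compound exposure,”, “with” for “using”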

Structure (SMILES)	DC50 (SMARCA4) [nM]	Dmax (SMARCA4) [%]	DC50 (SMARCA2) [nM]	Dmax (SMARCA2) [%]
Cc1ncsc1-c1ccc([C@H](CN2CCC3(COC3)C2)NC(=O)[C@@H]2C[C@@H](O)CN2C(=O)[C@@H](n2cc([C@H]3CC[C@H](CN4CCC(c5ccc6c(c5)-n5c(nc(=O)c7c(Cl)cccc75)C6(C)C)CC4)CC3)nn2)C(C)(C)C)cc1 [Compound A99, (2S,4R)-1-((S)-2-(4-((1r,4S)-4-((4-(4-chloro-7,7-dimethyl-5-oxo-5,7-dihydroindolo[1,2-a]quinazolin-10-yl)piperidin-1-yl)methyl)cyclohexyl)-1H-1,2,3-triazol-1-yl)-3,3-dimethylbutanoyl)-4-hydroxy-N—((R)-1-(4-(4-methylthiazol-5-yl)phenyl)-2-(2-oxa-6-azaspiro[3.4]octan-6-yl)ethyl)pyrrolidine-2-carboxamide]	> 1000	< 50	< 10	> 90
Cc1ncsc1-c1ccc([C@H](CN2CCOCC2)NC(=O)[C@@H]2C[C@@H](O)CN2C(=O)[C@H](C2CCOCC2)n2cc([C@H]3CC[C@H](CN4CCC(c5ccc6c(c5)-n5c(nc(=O)c7c(Cl)cccc75)C65CCCCC5)CC4)CC3)nn2)cc1 [Compound A100, (2S,4R)-1-((S)-2-(4-((1r,4S)-4-((4-(4′-chloro-5′-oxo-5′H-spiro[cyclohexane-1,7′-indolo[1,2-a]quinazolin]-10′-yl)piperidin-1-yl)methyl)cyclohexyl)-1H-1,2,3-triazol-1-yl)-2-(tetrahydro-2H-pyran-4-yl)acetyl)-4-hydroxy-N—((R)-1-(4-(4-methylthiazol-5-yl)phenyl)-2-morpholinoethyl)pyrrolidine-2-carboxamide]	> 1000	50 to 69	< 10	> 90
Cc1ncsc1-c1ccc([C@H](C)NC(=O)[C@@H]2C[C@@H](O)CN2C(=O)[C@H](C2CCN(C(=O)CN3CCC(c4ccc5c(c4)-n4c(nc(=O)c6c(Cl)cccc64)C54CCCCC4)CC3)CC2)n2cc(C3CC3)nn2)cc1 [Compound A105, (2S,4R)-1-((S)-2-(1-(2-(4-(4′-chloro-5′-oxo-5′H-spiro[cyclohexane-1,7′-indolo[1,2-a]quinazolin]-10′-yl)piperidin-1-yl)acetyl)piperidin-4-yl)-2-(4-cyclopropyl-1H-1,2,3-triazol-1-yl)acetyl)-4-hydroxy-N—((S)-1-(4-(4-methylthiazol-5-yl)phenyl)ethyl)pyrrolidine-2-carboxamide]	> 1000	< 50	100 to 1000	50 to 69
Cc1ncsc1-c1ccc([C@H](C)NC(=O)[C@@H]2C[C@@H](O)CN2C(=O)[C@H](C2CCN(C(=O)CCCN3CCC(c4ccc5c(c4)-n4c(nc(=O)c6c(Cl)cccc64)C54CCCCC4)CC3)CC2)n2cc(C3CC3)nn2)cc1 [Compound A106, (2S,4R)-1-((S)-2-(1-(4-(4-(4′-chloro-5′-oxo-5′H-spiro[cyclohexane-1,7′-indolo[1,2-a]quinazolin]-10′-yl)piperidin-1-yl)butanoyl)piperidin-4-yl)-2-(4-cyclopropyl-1H-1,2,3-triazol-1-yl)acetyl)-4-hydroxy-N—((S)-1-(4-(4-methylthiazol-5-yl)phenyl)ethyl)pyrrolidine-2-carboxamide]	100 to 1000	< 50	100 to 1000	70 to 90
Cc1ncsc1-c1ccc([C@H](C)NC(=O)[C@@H]2C[C@@H](O)CN2C(=O)[C@H](C2CCN(C(=O)CCCCN3CCC(c4ccc5c(c4)-n4c(nc(=O)c6c(Cl)cccc64)C54CCCCC4)CC3)CC2)n2cc(C3CC3)nn2)cc1 [Compound A107, (2S,4R)-1-((S)-2-(1-(5-(4-(4′-chloro-5′-oxo-5′H-spiro[cyclohexane-1,7′-indolo[1,2-a]quinazolin]-10′-yl)piperidin-1-yl)pentanoyl)piperidin-4-yl)-2-(4-cyclopropyl-1H-1,2,3-triazol-1-yl)acetyl)-4-hydroxy-N—((S)-1-(4-(4-methylthiazol-5-yl)phenyl)ethyl)pyrrolidine-2-carboxamide]	> 1000	< 50	100 to 1000	70 to 90
Cc1ncsc1-c1ccc([C@H](C)NC(=O)[C@@H]2C[C@@H](O)CN2C(=O)[C@H](C2CCNCC2)n2cc([C@H]3CC[C@H](CN4CCC(c5ccc6c(c5)-n5c(nc(=O)c7c(Cl)cccc75)C65CCCCC5)CC4)CC3)nn2)cc1 [Compound A109, (2S,4R)-1-((S)-2-(4-((1r,4S)-4-((4-(4′-chloro-5′-oxo-5′H-spiro[cyclohexane-1,7′-indolo[1,2-a]quinazolin]-10′-yl)piperidin-1-yl)methyl)cyclohexyl)-1H-1,2,3-triazol-1-yl)-2-(piperidin-4-yl)acetyl)-4-hydroxy-N—((S)-1-(4-(4-methylthiazol-5-yl)phenyl)ethyl)pyrrolidine-2-carboxamide]	> 1000	50 to 69	100 to 1000	70 to 90

Other lines, results leading:

DC50 (SMARCA4) [nM]	Dmax (SMARCA4) [%]	DC50 (SMARCA2) [nM]	Dmax (SMARCA2) [%]	Structure (SMILES)
10 to 100	70 to 90	< 10	> 90	Cc1ncsc1-c1ccc([C@H](CN2CCOCC2)NC(=O)[C@@H]2C[C@@H](O)CN2C(=O)[C@H](C2CCOCC2)n2cc([C@H]3CC[C@H](CN4CCC(c5ccc6c(c5)-n5c(nc(=O)c7c(Br)cccc75)C65CCCCC5)CC4)CC3)nn2)cc1 [Compound A101, (2S,4R)-1-((S)-2-(4-((1r,4S)-4-((4-(4′-bromo-5′-oxo-5′H-spiro[cyclohexane-1,7′-indolo[1,2-a]quinazolin]-10′-yl)piperidin-1-yl)methyl)cyclohexyl)-1H-1,2,3-triazol-1-yl)-2-(tetrahydro-2H-pyran-4-yl)acetyl)-4-hydroxy-N-((R)-1-(4-(4-methylthiazol-5-yl)phenyl)-2-morpholinoethyl)pyrrolidine-2-carboxamide]
> 1000	50 to 69	< 10	> 90	Cc1ncsc1-c1ccc([C@H](CN2CCOCC2)NC(=O)[C@@H]2C[C@@H](O)CN2C(=O)[C@H](C2CCOCC2)n2cc([C@H]3CC[C@H](CN4CCC(c5ccc6c(c5)-n5c(nc(=O)c7c(Cl)cccc75)C6(C)C)CC4)CC3)nn2)cc1 [Compound A102, (2S,4R)-1-((S)-2-(4-((1r,4S)-4-((4-(4-chloro-7,7-dimethyl-5-oxo-5,7-dihydroindolo[1,2-a]quinazolin-10-yl)piperidin-1-yl)methyl)cyclohexyl)-1H-1,2,3-triazol-1-yl)-2-(tetrahydro-2H-pyran-4-yl)acetyl)-4-hydroxy-N-((R)-1-(4-(4-methylthiazol-5-yl)phenyl)-2-morpholinoethyl)pyrrolidine-2-carboxamide]
< 10	50 to 69	< 10	> 90	Cc1ncsc1-c1ccc([C@H](CN2CCOCC2)NC(=O)[C@@H]2C[C@@H](O)CN2C(=O)[C@H](C(C)C)n2cc([C@H]3CC[C@H](CN4CCC(c5ccc6c(c5)-n5c(nc(=O)c7c(Cl)cccc75)C65CCCCC5)CC4)CC3)nn2)cc1 [Compound A103, (2S,4R)-1-((S)-2-(4-((1r,4S)-4-((4-(4′-chloro-5′-oxo-5′H-spiro[cyclohexane-1,7′-indolo[1,2-a]quinazolin]-10′-yl)piperidin-1-yl)methyl)cyclohexyl)-1H-1,2,3-triazol-1-yl)-3-methylbutanoyl)-4-hydroxy-N-((R)-1-(4-(4-methylthiazol-5-yl)phenyl)-2-morpholinoethyl)pyrrolidine-2-carboxamide]
> 1000	50 to 69	< 10	> 90	Cc1ncsc1-c1ccc([C@H](CN2CCOCC2)NC(=O)[C@@H]2C[C@@H](O)CN2C(=O)[C@H](C(C)C)n2cc([C@H]3CC[C@H](CN4CCC(c5ccc6c(c5)-n5c(nc(=O)c7c(Cl)cccc75)C6(C)C)CC4)CC3)nn2)cc1 [Compound A104, (2S,4R)-1-((S)-2-(4-((1r,4S)-4-((4-(4-chloro-7,7-dimethyl-5-oxo-5,7-dihydroindolo[1,2-a]quinazolin-10-yl)piperidin-1-yl)methyl)cyclohexyl)-1H-1,2,3-triazol-1-yl)-3-methylbutanoyl)-4-hydroxy-N-((R)-1-(4-(4-methylthiazol-5-yl)phenyl)-2-morpholinoethyl)pyrrolidine-2-carboxamide]
> 1000	< 50	< 10	70 to 90	Cc1ncsc1-c1ccc([C@H](C)NC(=O)[C@@H]2C[C@@H](O)CN2C(=O)[C@H](C2CCN(C(=O)[C@H]3CC[C@H](CN4CCC(c5ccc6c(c5)-n5c(nc(=O)c7c(Cl)cccc75)C65CCCCC5)CC4)CC3)CC2)n2cc(C3CC3)nn2)cc1 [Compound A108, (2S,4R)-1-((S)-2-(1-((1r,4S)-4-((4-(4′-chloro-5′-oxo-5′H-spiro[cyclohexane-1,7′-indolo[1,2-a]quinazolin]-10′-yl)piperidin-1-yl)methyl)cyclohexane-1-carbonyl)piperidin-4-yl)-2-(4-cyclopropyl-1H-1,2,3-triazol-1-yl)acetyl)-4-hydroxy-N—((S)-1-(4-(4-methylthiazol-5-yl)phenyl)ethyl)pyrrolidine-2-carboxamide]
